# Assay results published in publication PMC5546605 (PLoS ONE, 2017).
# Experiments:
# [1] = target: T1, cellular prion protein (PrP^C) (Mus musculus, UniProt P04925); assay: biochemical; assay type: binding
# T1 construct: gene Prnp
# [2] = target: T2, cellular prion protein (PrP^C) (Homo sapiens, UniProt P04156); assay: biochemical; assay type: binding
# T2 construct: gene PRNP
# T1 sequence (P04925 23-230 limits assumed): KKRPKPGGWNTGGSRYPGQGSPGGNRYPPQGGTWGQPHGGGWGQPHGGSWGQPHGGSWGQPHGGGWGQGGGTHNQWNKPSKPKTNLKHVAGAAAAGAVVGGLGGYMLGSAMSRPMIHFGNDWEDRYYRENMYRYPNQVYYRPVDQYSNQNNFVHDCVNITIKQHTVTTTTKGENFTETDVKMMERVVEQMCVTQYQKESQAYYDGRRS
smiles,measurement,setting,value
"CN(C)CCCN1c2ccccc2Sc2ccc(Cl)cc21 [CPZ, chlorpromazine]",Kd,[1],> 100 µM
same,Kd,[2],421 µM
